This is an account of results in patent US5827715A, “Heat resistant maltose phosphorylase, process for preparation thereof, bacteria used for preparation thereof, and methods for using the enzyme” (Showa Sangyo Co., Ltd., priority 1995, dated 1998).

The target in assay [1] is T1, heat resistant maltose phosphorylase (Bacillus sp. RK-1, UniProt Q84IX5). Kind of assay: Inhibitor test on heat resistant maltose phosphorylase activity. In kind it is biochemical. The settings on record: for activity at 1000 µM: read-out: Relative activity (%); for inhibition of the activity: 1 mM inhibitor, heat resistant maltose phosphorylase. As to the method:
(§1) The enzymological properties of the heat resistant maltose phosphorylase of the invention are as follows. As the heat resistant maltose phosphorylase,one obtained in Example 1 and prepared from Bacillus sp. RK-1 was used.
(§2) In this connection, maltose phosphorylase activity was assayed according to the following method. An enzyme solution (0.4 ml), 0.06 ml of 0.5M potassium phosphate-citric acid buffer (pH 6.0), 0.6 ml of 2 w/v % maltose and 0.14 ml of distilled water were mixed, and reaction was carried out at 60° C. for 15 minutes and ceased by boiling for 10 minutes. Then, 0.02 ml of a sample was taken from the reaction-ceased solution, 3 ml of a reagent for glucose examination (Glucose CII-Test Wako; Wako Pure Chemical Industries, Ltd.) was added, reaction was carried at room temperature for 20 minutes, the absorbance at 505 nm was measured using a spectrophotometer, and the amount of glucose formed in the reaction solution was determined from the measured value. From the amount of the formed glucose, the amount of the enzyme necessitated to phosphorolyze 1 μmol of maltose in one minute is calculated, and was assumed to be 1 unit.

Assay [2] concerns the target T2, heat resistant trehalose phosphorylase (Geobacillus stearothermophilus, UniProt Q8GRC3).
T2 construct: heat resistant trehalose phosphorylase which Bacillus stearothermophilus SK-1 found by the present inventors produces; made in house; host or cells: Bacillus stearothermophilus SK-1 (FERM BP-5594), the producing strain itself
The experiment in a line: biochemical. In kind it is biochemical, Bacillus stearothermophilus SK-1. As to conditions: for activity at 1000 µM: read-out: Relative activity (%); for inhibition of the activity: 1 mM inhibitor, heat resistant trehalose phosphorylase. From the text:
As the heat resistant maltose phosphorylase in the above process, there can be used the same ones as in the above process for preparation of β-glucose-1-phosphoric acid can be used. As the heat resistant trehalose phosphorylase, any one can be used so long as it can produce trehalose from maltose and phosphoric acid or a phosphate salt at one of the above reaction temperatures and at one of the above pH values, with the aid of the heat resistant maltose phosphorylase. […] The SK-1 strain was first deposited on Sep. 29, 1994 with National Institute of Bioscience and Human Technology, Agency of Industrial Science and Technology, the Ministry of International Trade and Industry, Japan under an accession number of FERM P-14567, and then transferred there to deposit according to Budapest Treaty on microorganisms on Jul. 17, 1996, and is assigned an accession number of FERM BP-5594. An example of preparation of the above heat resistant trehalose phosphorylase is shown in Example 4 (crude enzyme) and Reference example 1 (purified enzyme).
(§3) In this connection, trehalose phosphorylase activity was assayed by the following method. An enzyme solution (0.4 ml), 0.06 ml of 0.5M potassium phosphate-citric acid buffer (pH 6.0), 0.6 ml of 2 w/v % trehalose and 0.14 ml of distilled water were mixed, and reaction was carried out at 60° C. for 20 minutes and ceased by boiling for 10 minutes. Then, 0.02 ml of a sample was taken from the reaction-ceased solution, 3 ml of a reagent for glucose examination (Glucose CII-Test Wako; Wako Pure Chemical Industries, Ltd.) was added, reaction was carried out at room temperature for 20 minutes, the absorbance at 505 nm was measured using a spectrophotometer, and the amount of glucose formed in the reaction solution was determined from the measured value. As to the definition of the trehalose phosphorylase activity, the amount of the enzyme necessitated to phosphorolyze 1 μmol of trehalose in one minute under the above assay conditions was assumed to be 1 unit.

Assay [3] deals with T1, heat resistant maltose phosphorylase. Kind of assay: Substrate specificity of heat resistant maltose phosphorylase (phosphorolysis reaction, glucose formed). Format: biochemical. The arrangement: Relative activity (%): concentration or dose not given beside the values. The settings on record: for Relative activity (%): each substance as substrate of phosphorolysis by heat resistant maltose phosphorylase, maltose = 100; for formation of glucose: phosphorolysis reaction with the substance as substrate, heat resistant maltose phosphorylase. As to the method:
as §1, §2

Assay [4] deals with T2, heat resistant trehalose phosphorylase. The experiment in a line: Substrate specificity of heat resistant trehalose phosphorylase (phosphorolysis reaction, glucose formed). Format: biochemical, Bacillus stearothermophilus SK-1. The arrangement: Relative activity (%): concentration or dose not given beside the values. The settings on record: for Relative activity (%): each substance as substrate of phosphorolysis by heat resistant trehalose phosphorylase, trehalose = 100; for formation of glucose: phosphorolysis reaction with the substance as substrate, heat resistant trehalose phosphorylase.
From the text: As the heat resistant maltose phosphorylase in the above process, there can be used the same ones as in the above process for preparation of β-glucose-1-phosphoric acid can be used. As the heat resistant trehalose phosphorylase, any one can be used so long as it can produce trehalose from maltose and phosphoric acid or a phosphate salt at one of the above reaction temperatures and at one of the above pH values, with the aid of the heat resistant maltose phosphorylase. However, there can, preferably, be used heat resistant trehalose phosphorylase having an activity of 95% or more of the one untreated after treated in a buffer of pH 6.0, at one temperature of 50° to 65° C., preferably at one temperature of 55° to 65° C., further preferably at one temperature of 60° to 65° C., particularly preferably at 65° C., for 15 minutes. As an example of heat resistant trehalose phosphorylase having such a property, there can be mentioned heat resistant trehalose phosphorylase which Bacillus stearothermophilus SK-1 found by the present inventors produces. The SK-1 strain was first deposited on Sep. 29, 1994 with National Institute of Bioscience and Human Technology, Agency of Industrial Science and Technology, the Ministry of International Trade and Industry, Japan under an accession number of FERM P-14567, and then transferred there to deposit according to Budapest Treaty on microorganisms on Jul. 17, 1996, and is assigned an accession number of FERM BP-5594. An example of preparation of the above heat resistant trehalose phosphorylase is shown in Example 4 (crude enzyme) and Reference example 1 (purified enzyme). The enzymological properties of this purified enzyme are as follows.
as §3

[5] abbreviates: maltose phosphorylase activity with 1 mM inhibitor, no addition = 100.
[6] abbreviates: trehalose phosphorylase activity with 1 mM inhibitor, no addition = 100.

Where two headings read alike, the source gives them in different places.

T1 sequence (Q84IX5 entry or part of it, change not shown): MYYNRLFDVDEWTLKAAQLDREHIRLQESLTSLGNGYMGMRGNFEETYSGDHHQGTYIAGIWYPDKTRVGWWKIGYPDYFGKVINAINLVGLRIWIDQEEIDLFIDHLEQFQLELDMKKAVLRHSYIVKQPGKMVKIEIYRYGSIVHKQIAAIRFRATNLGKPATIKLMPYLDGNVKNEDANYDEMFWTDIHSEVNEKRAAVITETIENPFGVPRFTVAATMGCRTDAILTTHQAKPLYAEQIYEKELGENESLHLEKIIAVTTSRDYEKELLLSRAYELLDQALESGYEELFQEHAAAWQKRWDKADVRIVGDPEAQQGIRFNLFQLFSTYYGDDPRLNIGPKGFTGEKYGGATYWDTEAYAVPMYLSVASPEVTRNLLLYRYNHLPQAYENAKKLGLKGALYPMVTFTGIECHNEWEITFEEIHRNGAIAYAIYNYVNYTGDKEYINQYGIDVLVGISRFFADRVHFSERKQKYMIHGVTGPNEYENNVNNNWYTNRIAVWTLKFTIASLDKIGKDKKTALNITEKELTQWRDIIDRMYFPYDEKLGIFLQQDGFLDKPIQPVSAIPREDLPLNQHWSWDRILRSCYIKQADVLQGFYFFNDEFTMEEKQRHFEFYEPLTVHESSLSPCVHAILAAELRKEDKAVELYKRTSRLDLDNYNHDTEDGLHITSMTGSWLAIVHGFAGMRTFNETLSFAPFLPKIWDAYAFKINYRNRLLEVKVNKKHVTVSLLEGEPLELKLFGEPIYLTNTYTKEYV
T2 sequence (Q8GRC3 whole entry, change not shown): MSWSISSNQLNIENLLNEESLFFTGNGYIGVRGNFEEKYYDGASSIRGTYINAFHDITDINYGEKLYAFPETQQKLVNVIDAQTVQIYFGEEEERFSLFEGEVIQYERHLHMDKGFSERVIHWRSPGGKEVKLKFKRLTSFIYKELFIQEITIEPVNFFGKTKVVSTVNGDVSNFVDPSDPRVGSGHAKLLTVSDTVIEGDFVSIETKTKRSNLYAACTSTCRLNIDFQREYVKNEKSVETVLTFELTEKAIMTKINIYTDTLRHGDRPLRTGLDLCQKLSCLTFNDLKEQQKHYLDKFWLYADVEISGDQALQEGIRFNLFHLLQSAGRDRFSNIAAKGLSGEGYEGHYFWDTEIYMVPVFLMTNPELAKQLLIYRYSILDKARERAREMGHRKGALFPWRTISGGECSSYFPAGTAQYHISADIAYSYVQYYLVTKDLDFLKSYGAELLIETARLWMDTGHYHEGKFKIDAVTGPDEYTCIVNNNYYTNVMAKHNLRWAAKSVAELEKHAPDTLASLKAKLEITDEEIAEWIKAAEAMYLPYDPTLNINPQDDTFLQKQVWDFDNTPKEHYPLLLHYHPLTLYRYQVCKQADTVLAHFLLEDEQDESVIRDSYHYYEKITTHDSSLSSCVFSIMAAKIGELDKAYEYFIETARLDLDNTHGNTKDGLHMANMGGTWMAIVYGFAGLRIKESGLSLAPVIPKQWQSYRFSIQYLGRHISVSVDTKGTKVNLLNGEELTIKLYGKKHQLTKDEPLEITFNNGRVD

With `O[C@H](CS)[C@H](O)CS` (racemic) [DTT, Dithiothreitol], the activity at 1000 µM was determined as 101% in assay [1] (setting [5]) and 86% in assay [2] (setting [6]).

`[Ba+2].[OH-].[OH-]` [Ba (OH)2]: the “Relative activity (%)” value came to 100% in assay [1] (setting [5]) and 106% in assay [2] (setting [6]).

On to `[Ca+2].[Cl-].[Cl-]` [CaCl2], for which the figures for the “Relative activity (%)” value in assay [1] (setting [5]) and in assay [2] (setting [6]) were 101% and 102%, respectively.

For `OC[C@H]1O[C@@H](O[C@H]2[C@H](O)[C@@H](O)C(O)O[C@@H]2CO)[C@H](O)[C@@H](O)[C@@H]1O` (stereo partly drawn) [Cellobiose], in assay [3], the “Relative activity (%)” value amounted to 0% and the formation of glucose entry is listed as “scarcely observed”. Further, in assay [4], the “Relative activity (%)” value stood at 2% and the formation of glucose result is given as “scarcely observed”.

For `O=S(=O)([O-])[O-].[Cu+2]` [CuSO4], the “Relative activity (%)” value in assay [1] (setting [5]) was found to be 91%; in assay [2] (setting [6]), 89%.

Consider `O=[N+]([O-])c1ccc(O[C@H]2O[C@H](CO)[C@@H](O)[C@H](O)[C@H]2O)cc1` [D - glucosideyl - α, p-nitrophenyl-α-D-glucoside], for which, in assay [3], the “Relative activity (%)” value is recorded as 0% and the formation of glucose entry is recorded as “scarcely observed”. In assay [4], the “Relative activity (%)” value was found to be 2% and the formation of glucose result is “scarcely observed”.

With `O=[N+]([O-])c1ccc(O[C@@H]2O[C@H](CO)[C@@H](O)[C@H](O)[C@H]2O)cc1` [D - glucosideyl - β, p-nitrophenyl-β-D-glucoside], the “Relative activity (%)” value in assay [3] came out at 0%; in assay [4], 2%. Further, the formation of glucose entry in assay [3] and in assay [4] was “scarcely observed” each time.

Regarding `O=C(O)CN(CCN(CC(=O)O)CC(=O)O)CC(=O)O` [EDTA.2Na], the activity at 1000 µM in assay [1] turned out to be 100%.

As for `O=C(O)CN(CCN(CC(=O)O)CC(=O)O)CC(=O)O` [EDTA], in assay [2], the activity at 1000 µM amounted to 99%.

On to `[Cl][Fe][Cl]` [FeCl2], for which the entries for the “Relative activity (%)” value in assay [1] (setting [5]) and in assay [2] (setting [6]) were 94% and 96%, respectively.

Turning to `OC[C@H]1O[C@@H](OC[C@H]2OC(O)[C@H](O)[C@@H](O)[C@@H]2O)[C@H](O)[C@@H](O)[C@@H]1O` (stereo partly drawn) [Gentiobiose], in assay [3], the “Relative activity (%)” value came out at 2%.

For `[Cl][Hg][Cl]` [HgCl2], the “inhibition of the activity” value in assay [1] and in assay [2] was 99% throughout. Further, the “Relative activity (%)” value in assay [1] (setting [5]) and in assay [2] (setting [6]) was 1% throughout.

For `OC[C@H]1O[C@H](OC[C@H]2OC(O)[C@H](O)[C@@H](O)[C@@H]2O)[C@H](O)[C@@H](O)[C@@H]1O` (stereo partly drawn) [Isomaltose], the “Relative activity (%)” value in assay [3] amounted to 2%; in assay [4] it was 3%. Moreover, the formation of glucose entry in assay [3] and in assay [4] was “scarcely observed” throughout.

Consider `OC[C@H]1O[C@@H](O[C@H]2[C@H](O)[C@@H](O)C(O)O[C@@H]2CO)[C@H](O)[C@@H](O)[C@H]1O` (stereo partly drawn) [Lactose], for which the “Relative activity (%)” value in assay [3] came out at 0%.

For `OC[C@H]1O[C@H](O[C@H]2[C@H](O)[C@@H](O)[C@H](O)O[C@@H]2CO)[C@H](O)[C@@H](O)[C@@H]1O` [Maltose], in assay [3], the “Relative activity (%)” value is listed as 100%. In assay [4], the “Relative activity (%)” value came out at 1% and the formation of glucose result is given as “scarcely observed”.

On to `OCCS` [Mercaptoethanol], for which the activity at 1000 µM in assay [1] (setting [5]) is 94%; in assay [2] (setting [6]), 96%.

As to `[Cl-].[Cl-].[Mg+2]` [MgCl2], the figures for the “Relative activity (%)” value in assay [1] (setting [5]) and in assay [2] (setting [6]) were 100% and 103%, respectively.

Take `O=S(=O)([O-])[O-].[Mn+2]` [MnSO4]: the “Relative activity (%)” value in assay [1] (setting [5]) stood at 111%; in assay [2] (setting [6]), 108%.

As to `OC[C@H]1O[C@@H](O[C@H]2O[C@H](CO)[C@@H](O)[C@H](O)[C@H]2O)[C@H](O)[C@@H](O)[C@@H]1O` [Neotrehalose], the results for the “Relative activity (%)” value in assay [3] and in assay [4] were 0% and 1%, respectively. The formation of glucose result in assay [3] and in assay [4] was “scarcely observed” throughout.

For `O=C(O)c1cc[c]([Hg][Cl])cc1` [PCMB, p (Chloromercuri) benzoic acid], the “Relative activity (%)” value was 20% in assay [1] (setting [5]) and 0% in assay [2] (setting [6]).

In the case of `CC(=O)[O-].CC(=O)[O-].[Pb+2]` [Pb (CH3 COO)2], the figures for the “Relative activity (%)” value in assay [1] (setting [5]) and in assay [2] (setting [6]) were 99% and 93%, respectively.

For `OC[C@H]1O[C@@](CO)(O[C@H]2O[C@H](CO)[C@@H](O)[C@H](O)[C@H]2O)[C@@H](O)[C@@H]1O` [Sucrose], in assay [3], the “Relative activity (%)” value turned out to be 0% and the formation of glucose result is listed as “scarcely observed”. In assay [4], the “Relative activity (%)” value was 1% and the formation of glucose entry is reported as “scarcely observed”.

Consider `OC[C@H]1O[C@H](O[C@H]2O[C@H](CO)[C@@H](O)[C@H](O)[C@H]2O)[C@H](O)[C@@H](O)[C@@H]1O` [Trehalose], for which, in assay [3], the “Relative activity (%)” value came to 0% and the formation of glucose result is “scarcely observed”. The “Relative activity (%)” value in assay [4] amounted to 100%.

Consider `O=S(=O)([O-])[O-].[Zn+2]` [ZnSO4], for which the “inhibition of the activity” value stood at 37% in assay [1] and 80% in assay [2]. The “Relative activity (%)” value worked out at 63% in assay [1] (setting [5]) and 20% in assay [2] (setting [6]).

In the case of Soluble starch, the “Relative activity (%)” value in assay [3] worked out at 2%.
